Reference: patent US12516056B2, “Compounds for inhibition of janus kinase 1” (MANKIND PHARMA LTD., priority 2019, dated 2026)
Where a name gives a salt, the structure may show the parent alone.

What was measured:
[1] = test system: STAT5 phosphorylation by GMCSF in TF-1 cells; assay: JAK cellular assay: STAT5 phosphorylation by GMCSF in TF-1 cells (HTRF); type: cell-based; details: Homo sapiens; TF-1 cells, GMCSF 5 ng/ml, pSTAT5 HTRF; read-out: Cell Based Assay (μM) TF-1/GMCSF/pSTAT5
Protocol: (§1) TF-1 cells were starved overnight in OptiMEM medium with 0.5% charcoal stripped fetal bovine serum, 0.1 mM nonessential amino acids (NEAA), 1 mM sodium pyruvate and without phenol red in CO2 incubator maintained at 37° c. Next day, cells were resuspended in RPMI without phenol red and dispensed into a 96 well plate at a final cell density of 1,20,000 cells per well. Compounds were diluted in DMSO and added to cells and incubated for 30 minutes in CO2 incubator maintained at 37° c. Final DMSO concentration in cell based assay was 0.2%. Human recombinant cytokines, IL-6 (30 ng/ml) and GMCSF (5 ng/ml) were added to the plate containing cells along with compound and incubated for 20 minutes with gentle tapping at every 5 minutes once. Compound mediated effects on STAT3 and STAT5 phosphorylation was measured in the lysates prepared by using CISBIO pSTAT3 and pSTAT5 detection kits by HTRF method. Background signal obtained from cells which were not activated with cytokines, was subtracted from vehicle controls and compound treated wells.

[2] = test system: STAT3 phosphorylation by IL-6 in TF-1 cells; assay: JAK cellular assay: STAT3 phosphorylation by IL-6 in TF-1 cells (HTRF); type: cell-based; details: Homo sapiens, TF-1, TF-1 cells, IL-6 30 ng/ml, pSTAT3 HTRF; read-out: Cell Based Assay (μM) TF-1/IL-6/pSTAT3
Protocol: as §1

Recombinant JAK1 = biological target: T1, Recombinant JAK1 (Homo sapiens, UniProt P23458); assay: JAK biochemical assay (LANCE Ultra TR-FRET), JAK1; details: recombinant JAK1, TR-FRET; read-out: Biochemical Assay (μM) JAK1
T1 construct: purchased Carna Biosciences
In short: (§2)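 TR-FRET read-out of ULight substrate phosphorylation by recombinant kinase gives % inhibition relative to vehicle. The assay buffer is HEPES pH 7.5 with EGTA, MgCl2, DTT and Tween-20.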

Recombinant TYK2 = biological target: T2, Recombinant TYK2 (Homo sapiens, UniProt P29597); assay: JAK biochemical assay (LANCE Ultra TR-FRET), TYK2; details: recombinant TYK2, TR-FRET; read-out: Biochemical Assay (μM) TYK2
T2 construct: purchased Carna Biosciences
In short: as §2

Recombinant JAK2 = biological target: T3, Recombinant JAK2 (Homo sapiens, UniProt O60674); assay: JAK biochemical assay (LANCE Ultra TR-FRET), JAK2; details: recombinant JAK2, TR-FRET; read-out: Biochemical Assay (μM) JAK2
T3 construct: purchased Carna Biosciences
In short: as §2

Recombinant JAK3 = biological target: T4, Recombinant JAK3 (Homo sapiens, UniProt P52333); assay: JAK biochemical assay (LANCE Ultra TR-FRET), JAK3; details: recombinant JAK3, TR-FRET; read-out: Biochemical Assay (μM) JAK3
T4 construct: purchased Carna Biosciences
T4 sequence (P52333 1-1124): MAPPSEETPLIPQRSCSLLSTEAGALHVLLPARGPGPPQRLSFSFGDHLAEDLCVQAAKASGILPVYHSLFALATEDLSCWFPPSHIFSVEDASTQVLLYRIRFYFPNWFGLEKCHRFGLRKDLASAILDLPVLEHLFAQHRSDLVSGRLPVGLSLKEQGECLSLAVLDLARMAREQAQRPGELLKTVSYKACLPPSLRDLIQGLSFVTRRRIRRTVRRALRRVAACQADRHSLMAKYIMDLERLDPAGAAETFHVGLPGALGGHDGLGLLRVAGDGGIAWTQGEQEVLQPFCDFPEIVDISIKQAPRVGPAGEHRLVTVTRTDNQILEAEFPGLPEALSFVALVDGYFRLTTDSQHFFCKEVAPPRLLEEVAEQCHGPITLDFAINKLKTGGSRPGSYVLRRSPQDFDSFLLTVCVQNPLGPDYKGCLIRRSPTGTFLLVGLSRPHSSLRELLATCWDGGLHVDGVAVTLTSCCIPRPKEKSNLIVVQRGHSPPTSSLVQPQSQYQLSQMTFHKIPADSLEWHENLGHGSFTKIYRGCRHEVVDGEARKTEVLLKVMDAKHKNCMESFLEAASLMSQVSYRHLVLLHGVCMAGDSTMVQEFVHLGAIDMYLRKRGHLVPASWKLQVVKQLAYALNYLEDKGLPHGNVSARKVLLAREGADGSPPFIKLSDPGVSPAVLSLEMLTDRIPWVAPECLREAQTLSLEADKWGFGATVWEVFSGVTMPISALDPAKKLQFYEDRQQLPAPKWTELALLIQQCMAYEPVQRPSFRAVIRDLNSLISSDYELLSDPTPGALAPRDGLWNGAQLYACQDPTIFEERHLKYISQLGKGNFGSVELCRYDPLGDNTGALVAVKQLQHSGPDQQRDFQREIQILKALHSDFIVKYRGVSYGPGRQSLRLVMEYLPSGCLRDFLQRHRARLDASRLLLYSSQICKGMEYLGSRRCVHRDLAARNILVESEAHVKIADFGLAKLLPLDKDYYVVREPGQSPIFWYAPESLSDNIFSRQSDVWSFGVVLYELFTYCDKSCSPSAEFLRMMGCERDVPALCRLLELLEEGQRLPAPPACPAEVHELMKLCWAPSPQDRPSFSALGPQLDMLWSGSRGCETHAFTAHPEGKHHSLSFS
In short: as §2

T1 sequence (P23458 whole entry): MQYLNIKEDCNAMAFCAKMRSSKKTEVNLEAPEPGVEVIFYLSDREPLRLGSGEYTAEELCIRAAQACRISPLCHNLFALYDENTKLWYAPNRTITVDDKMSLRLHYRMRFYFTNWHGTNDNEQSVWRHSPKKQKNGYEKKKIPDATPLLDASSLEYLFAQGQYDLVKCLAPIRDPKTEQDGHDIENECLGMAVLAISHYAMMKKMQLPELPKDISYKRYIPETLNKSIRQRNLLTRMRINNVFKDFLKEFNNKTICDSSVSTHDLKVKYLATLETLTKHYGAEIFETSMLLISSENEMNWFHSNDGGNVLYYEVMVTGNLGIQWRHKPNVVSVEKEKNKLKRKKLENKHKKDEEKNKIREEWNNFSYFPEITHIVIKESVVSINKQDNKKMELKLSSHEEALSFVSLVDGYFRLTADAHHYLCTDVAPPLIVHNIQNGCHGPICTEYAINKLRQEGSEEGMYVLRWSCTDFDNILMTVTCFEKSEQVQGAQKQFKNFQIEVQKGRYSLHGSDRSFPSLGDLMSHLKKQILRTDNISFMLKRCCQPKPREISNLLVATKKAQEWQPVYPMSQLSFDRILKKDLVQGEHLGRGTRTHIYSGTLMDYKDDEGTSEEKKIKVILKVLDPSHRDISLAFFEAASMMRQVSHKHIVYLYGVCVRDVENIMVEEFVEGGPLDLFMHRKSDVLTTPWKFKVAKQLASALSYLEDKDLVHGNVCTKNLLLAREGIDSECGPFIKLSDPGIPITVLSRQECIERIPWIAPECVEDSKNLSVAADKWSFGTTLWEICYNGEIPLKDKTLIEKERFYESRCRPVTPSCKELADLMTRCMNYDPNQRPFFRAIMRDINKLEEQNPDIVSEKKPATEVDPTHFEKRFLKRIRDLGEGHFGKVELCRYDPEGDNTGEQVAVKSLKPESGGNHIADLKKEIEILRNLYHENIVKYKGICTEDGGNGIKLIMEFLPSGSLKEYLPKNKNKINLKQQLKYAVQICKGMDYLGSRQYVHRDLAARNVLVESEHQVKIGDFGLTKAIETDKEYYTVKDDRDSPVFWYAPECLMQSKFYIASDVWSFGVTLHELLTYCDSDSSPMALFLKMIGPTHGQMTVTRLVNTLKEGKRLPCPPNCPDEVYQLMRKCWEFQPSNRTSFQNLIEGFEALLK
T3 sequence (O60674 whole entry): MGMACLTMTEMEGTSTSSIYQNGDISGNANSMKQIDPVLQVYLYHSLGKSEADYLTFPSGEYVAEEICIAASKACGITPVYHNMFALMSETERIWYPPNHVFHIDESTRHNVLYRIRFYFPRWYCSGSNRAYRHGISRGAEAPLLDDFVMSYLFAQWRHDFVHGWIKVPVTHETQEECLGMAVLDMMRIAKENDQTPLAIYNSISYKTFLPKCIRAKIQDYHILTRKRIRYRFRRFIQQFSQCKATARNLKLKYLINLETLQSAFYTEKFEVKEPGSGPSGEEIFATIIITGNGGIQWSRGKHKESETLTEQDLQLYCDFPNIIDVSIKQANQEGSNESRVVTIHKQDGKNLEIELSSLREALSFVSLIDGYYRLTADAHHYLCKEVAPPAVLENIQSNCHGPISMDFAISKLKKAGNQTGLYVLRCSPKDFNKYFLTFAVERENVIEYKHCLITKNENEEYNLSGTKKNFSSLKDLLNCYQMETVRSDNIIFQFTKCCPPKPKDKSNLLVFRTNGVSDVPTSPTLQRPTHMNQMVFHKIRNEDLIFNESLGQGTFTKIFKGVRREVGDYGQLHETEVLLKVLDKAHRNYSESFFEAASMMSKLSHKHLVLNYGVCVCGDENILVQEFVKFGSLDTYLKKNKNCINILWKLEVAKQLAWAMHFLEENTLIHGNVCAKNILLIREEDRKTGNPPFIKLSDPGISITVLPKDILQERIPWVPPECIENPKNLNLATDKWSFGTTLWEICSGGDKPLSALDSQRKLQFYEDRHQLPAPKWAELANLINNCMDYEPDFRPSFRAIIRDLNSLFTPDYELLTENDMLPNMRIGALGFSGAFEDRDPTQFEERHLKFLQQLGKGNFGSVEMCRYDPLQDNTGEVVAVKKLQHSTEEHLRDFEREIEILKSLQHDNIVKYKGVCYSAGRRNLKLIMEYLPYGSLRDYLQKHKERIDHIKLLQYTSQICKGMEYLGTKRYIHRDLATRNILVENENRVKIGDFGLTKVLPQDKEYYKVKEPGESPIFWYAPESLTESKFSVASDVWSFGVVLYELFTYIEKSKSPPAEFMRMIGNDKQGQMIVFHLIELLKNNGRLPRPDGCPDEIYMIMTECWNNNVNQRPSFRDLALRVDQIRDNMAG
T2 sequence (P29597 whole entry): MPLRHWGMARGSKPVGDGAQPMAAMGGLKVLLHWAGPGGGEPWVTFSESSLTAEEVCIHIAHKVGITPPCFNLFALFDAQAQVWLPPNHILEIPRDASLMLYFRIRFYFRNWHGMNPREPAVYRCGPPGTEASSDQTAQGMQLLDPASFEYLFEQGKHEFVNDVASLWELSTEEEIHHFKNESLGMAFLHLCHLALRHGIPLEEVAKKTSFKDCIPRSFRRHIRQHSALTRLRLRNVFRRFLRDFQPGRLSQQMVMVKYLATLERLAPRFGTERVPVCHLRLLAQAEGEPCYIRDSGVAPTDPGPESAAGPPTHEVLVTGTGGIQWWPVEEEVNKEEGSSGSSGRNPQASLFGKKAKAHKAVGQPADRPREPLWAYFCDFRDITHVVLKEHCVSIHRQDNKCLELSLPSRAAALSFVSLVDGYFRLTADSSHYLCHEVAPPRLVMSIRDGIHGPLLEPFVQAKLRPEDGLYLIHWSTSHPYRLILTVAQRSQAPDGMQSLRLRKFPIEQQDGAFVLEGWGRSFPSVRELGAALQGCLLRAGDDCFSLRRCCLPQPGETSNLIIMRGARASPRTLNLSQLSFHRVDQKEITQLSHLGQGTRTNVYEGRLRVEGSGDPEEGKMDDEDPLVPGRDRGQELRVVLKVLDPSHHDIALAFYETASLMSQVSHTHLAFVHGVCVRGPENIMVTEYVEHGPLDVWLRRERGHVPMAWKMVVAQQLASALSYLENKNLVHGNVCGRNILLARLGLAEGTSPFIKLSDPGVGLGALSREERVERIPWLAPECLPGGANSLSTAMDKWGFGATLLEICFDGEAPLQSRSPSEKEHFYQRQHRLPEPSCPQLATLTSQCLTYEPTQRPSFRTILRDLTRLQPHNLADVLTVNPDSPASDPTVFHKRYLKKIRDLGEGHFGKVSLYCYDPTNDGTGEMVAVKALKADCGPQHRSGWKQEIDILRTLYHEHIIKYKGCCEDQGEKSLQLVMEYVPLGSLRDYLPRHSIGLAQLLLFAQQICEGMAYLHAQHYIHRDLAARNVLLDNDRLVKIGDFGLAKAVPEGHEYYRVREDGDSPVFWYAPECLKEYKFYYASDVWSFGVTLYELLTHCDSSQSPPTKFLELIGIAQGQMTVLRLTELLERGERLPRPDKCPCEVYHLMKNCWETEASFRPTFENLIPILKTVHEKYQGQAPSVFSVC

SMILES	IC50 [1] [µM]	IC50 [2] [µM]	IC50 (Recombinant JAK1) [µM]	IC50 (Recombinant TYK2) [µM]	IC50 (Recombinant JAK2) [µM]	IC50 (Recombinant JAK3) [µM]
CN1CCN(CC(c2ccc(-n3cc(-c4ccnc5[nH]cnc45)cn3)nc2)C(F)(F)F)CC1 (stereo not shown) [Example 1222, 7-(1-(5-(1,1,1-trifluoro-3-(4-methylpiperazin-1-yl)propan-2-yl)pyridin-2-yl)-1H-pyrazol-4-yl)-3H-imidazo[4,5-b]pyridine]	> 1	> 0.8	–	–	–	–
N#CC1(NC(=O)n2cc(-c3ccnc4[nH]c(=O)[nH]c34)cn2)CC1 [Example 1032, N-(1-cyanocyclopropyl)-4-(2,3-dihydro-2-oxo-1H-imidazo[4,5-b]pyridin-7-yl)-1H-pyrazole-1-carboxamide]	–	> 10	< 0.5	< 0.5	< 0.5	< 0.5
CN(C)C(=O)CC(c1ccc(-n2cc(-c3ccnc4[nH]cnc34)cn2)nc1)C(F)(F)F (stereo not shown) [Example 1144, 3-(6-(4-(3H-imidazo[4,5-b]pyridin-7-yl)-1H-pyrazol-1-yl)pyridin-3-yl)-4,4,4-trifluoro-N,N-dimethylbutanamide]	> 10	> 1	–	> 1	–	> 0.1
CC(N)CCC(c1ccc(-n2cc(-c3ccnc4[nH]cnc34)cn2)nc1)C(F)(F)F (stereo not shown) [Example 1224, 5-(6-(4-(3H-imidazo[4,5-b]pyridin-7-yl)-1H-pyrazol-1-yl)pyridin-3-yl)-6,6,6-trifluorohexan-2-amine, TFA salt]	> 1	> 0.75	–	> 0.1	–	0.001
O=S(=O)(CCC(c1ccc(-n2cc(-c3ccnc4[nH]cnc34)cn2)nc1)C(F)(F)F)C1CC1 (stereo not shown) [Example 1139, 7-(1-(5-(4-(cyclopropylsulfonyl)-1,1,1-trifluorobutan-2-yl)pyridin-2-yl)-1H-pyrazol-4-yl)-3H-imidazo[4,5-b]pyridine]	–	1	> 0.5	> 1	> 0.5	> 0.1
COC(c1ccc(-n2cc(-c3ccnc4[nH]cnc34)cn2)nc1)(C1CCN(C)CC1)C(F)(F)F (stereo not shown) [Example 1244, 7-(1-(5-(2,2,2-trifluoro-1-methoxy-1-(1-methylpiperidin-4-yl)ethyl)pyridin-2-yl)-1H-pyrazol-4-yl)-3H-imidazo[4,5-b]pyridine]	–	> 1	< 0.1	> 1	> 0.1	> 0.1
CC1(C)CN(C(=O)Nc2ccc(-c3ccnc4[nH]c(=O)[nH]c34)cc2)C1 [Example 1007, N-(4-(2,3-dihydro-2-oxo-1H-imidazo[4,5-b]pyridin-7-yl)phenyl)-3,3-dimethylazetidine-1-carboxamide]	–	> 10	> 0.5	> 1	> 0.5	> 1
O=C(NCC(F)(F)F)Nc1ccc(-c2ccnc3[nH]c(=O)[nH]c23)cc1 [Example 1003, 1-(2,2,2-trifluoroethyl)-3-(4-(2,3-dihydro-2-oxo-1H-imidazo[4,5-b]pyridin-7-yl)phenyl)urea]	–	> 10	0.021	0.182	0.036	0.175
N#CCC(=O)N1CC(C(O)(c2ccc(-n3cc(-c4ccnc5[nH]cnc45)cn3)nc2)C(F)(F)F)C1 (stereo not shown) [Example 1245, 3-(3-(1-(6-(4-(3H-imidazo[4,5-b]pyridin-7-yl)-1H-pyrazol-1-yl)pyridin-3-yl)-2,2,2-trifluoro-1-hydroxyethyl)azetidin-1-yl)-3-oxopropanenitrile]	–	> 1	> 0.001	> 1	> 0.03	> 0.003
FC(F)(F)Cc1ccc(-n2cc(-c3ccnc4[nH]cnc34)cn2)nc1 [Example 1084, 7-(1-(5-(2,2,2-trifluoroethyl)pyridin-2-yl)-1H-pyrazol-4-yl)-3H-imidazo[4,5-b]pyridine]	> 10	> 1	–	–	–	–
O=C(NCC(F)(F)F)N1CCN(c2ccnc3[nH]c(-c4ccccc4)nc23)CC1 [Example 1022, N-(2,2,2-trifluoroethyl)-4-(2-phenyl-3H-imidazo[4,5-b]pyridin-7-yl)piperazine-1-carboxamide]	–	> 10	< 0.5	< 0.5	< 0.5	< 0.5
CC(NC(=O)n1cc(-c2ccnc3[nH]c(=O)[nH]c23)cn1)C(F)(F)F (stereo not shown) [Example 1030, N-(1,1,1-trifluoropropan-2-yl)-4-(2,3-dihydro-2-oxo-1H-imidazo[4,5-b]pyridin-7-yl)-1H-pyrazole-1-carboxamide]	–	10	0.039	0.093	0.066	0.43
N#CCc1cccc(-n2cc(-c3ccnc4[nH]cnc34)cn2)n1 [Example 1117, 2-(6-(4-(3H-imidazo[4,5-b]pyridin-7-yl)-1H-pyrazol-1-yl)pyridin-2-yl)acetonitrile]	> 10	> 1	–	–	–	–
CC(C)C(C#N)NC(=O)n1cc(-c2ccnc3[nH]c(=O)[nH]c23)cn1 (stereo not shown) [Example 1044, N-(1-cyano-2-methylpropyl)-4-(2,3-dihydro-2-oxo-1H-imidazo[4,5-b]pyridin-7-yl)-1H-pyrazole-1-carboxamide]	–	10	< 0.5	< 0.5	< 0.5	< 0.5
N#CC(NC(=O)n1cc(-c2ccnc3[nH]c(=O)[nH]c23)cn1)C1CCCC1 (stereo not shown) [Example 1038, N-(cyano(cyclopentyl)methyl)-4-(2,3-dihydro-2-oxo-1H-imidazo[4,5-b]pyridin-7-yl)-1H-pyrazole-1-carboxamide]	–	10	> 0.5	> 0.5	> 0.5	> 0.5
CC1(C)CN(C(=O)n2cc(-c3ccnc4[nH]c(=O)[nH]c34)cn2)C1 [Example 1037, 7-(1-(3,3-dimethylazetidine-1-carbonyl)-1H-pyrazol-4-yl)-1,3-dihydro-2H-imidazo[4,5-b]pyridin-2-one]	–	> 10	> 0.5	> 0.5	> 1	> 1
O=C(NCC(F)(F)F)n1cc(-c2ccnc3[nH]cnc23)cn1 [Example 1064, N-(2,2,2-trifluoroethyl)-4-(3H-imidazo[4,5-b]pyridin-7-yl)-1H-pyrazole-1-carboxamide]	–	> 10	< 0.5	< 0.5	< 0.5	< 0.5
O=C(NC(C1CCCC1)C(F)(F)F)n1cc(-c2ccnc3[nH]c(=O)[nH]c23)cn1 (stereo not shown) [Example 1041, N-(1-cyclopentyl-2,2,2-trifluoroethyl)-4-(2,3-dihydro-2-oxo-1H-imidazo[4,5-b]pyridin-7-yl)-1H-pyrazole-1-carboxamide]	–	> 10	> 1	> 1	> 1	> 10
